Measurements reported in ChEMBL document CHEMBL2074081, “Functional characteristics and membrane localization of rat multispecific organic cation transporters, OCT1 and OCT2, mediating tubular secretion of cationic drugs” (J Pharmacol Exp Ther, 1998).

T1: Solute carrier family 22 member 2 (Rattus norvegicus, UniProt Q9R0W2)
T1 sequence (Q9R0W2 whole entry): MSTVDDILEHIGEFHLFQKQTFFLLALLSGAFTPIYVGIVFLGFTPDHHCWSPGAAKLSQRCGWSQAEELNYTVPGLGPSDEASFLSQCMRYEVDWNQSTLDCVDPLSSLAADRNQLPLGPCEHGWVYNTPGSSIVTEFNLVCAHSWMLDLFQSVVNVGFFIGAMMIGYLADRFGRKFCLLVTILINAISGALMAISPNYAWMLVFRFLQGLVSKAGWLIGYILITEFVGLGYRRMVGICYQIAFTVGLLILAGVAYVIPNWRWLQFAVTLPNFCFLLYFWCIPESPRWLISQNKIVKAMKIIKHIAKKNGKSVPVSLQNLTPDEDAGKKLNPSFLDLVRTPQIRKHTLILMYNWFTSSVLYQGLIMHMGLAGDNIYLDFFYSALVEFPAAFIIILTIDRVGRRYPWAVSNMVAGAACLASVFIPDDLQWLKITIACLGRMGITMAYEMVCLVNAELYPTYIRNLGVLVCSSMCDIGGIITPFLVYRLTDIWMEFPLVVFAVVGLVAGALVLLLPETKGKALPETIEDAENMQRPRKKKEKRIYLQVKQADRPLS

T2: Solute carrier family 22 member 1 (Rattus norvegicus, UniProt Q63089)
T2 sequence (Q63089 whole entry): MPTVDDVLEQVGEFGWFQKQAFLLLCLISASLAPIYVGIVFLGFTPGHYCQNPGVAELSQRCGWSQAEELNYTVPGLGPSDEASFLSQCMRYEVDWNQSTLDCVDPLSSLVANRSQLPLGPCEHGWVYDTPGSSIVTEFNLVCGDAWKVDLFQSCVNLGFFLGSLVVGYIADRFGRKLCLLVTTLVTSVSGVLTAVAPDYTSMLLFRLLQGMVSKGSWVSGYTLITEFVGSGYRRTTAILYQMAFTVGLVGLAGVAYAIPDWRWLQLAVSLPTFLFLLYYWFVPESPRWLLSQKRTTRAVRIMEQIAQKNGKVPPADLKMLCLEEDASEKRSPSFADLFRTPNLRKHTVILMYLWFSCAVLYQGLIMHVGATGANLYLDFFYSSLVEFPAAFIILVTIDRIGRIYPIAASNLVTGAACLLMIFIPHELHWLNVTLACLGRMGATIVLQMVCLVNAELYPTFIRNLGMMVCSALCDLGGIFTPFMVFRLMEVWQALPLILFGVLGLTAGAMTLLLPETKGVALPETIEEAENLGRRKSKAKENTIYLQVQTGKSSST

B1: Solute carrier family 22 member 1 (Rattus norvegicus) (protein)
chain: T2 sequence (Q63089 whole entry)
B2: Solute carrier family 22 member 2 (Rattus norvegicus) (protein)
chain: T1 sequence (Q9R0W2 whole entry)

What was measured:
[1] = target: T1, Solute carrier family 22 member 2; test: TP_TRANSPORTER: inhibition of TEA uptake (basolateral to cell) in OCT2-expressing MDCK cells; format: functional, cell-based
[2] = target: T2, Solute carrier family 22 member 1; test: TP_TRANSPORTER: inhibition of TEA uptake (basolateral to cell) in OCT1-expressing MDCK cells; format: functional, cell-based
[3] = target: T1, Solute carrier family 22 member 2; test: TP_TRANSPORTER: inhibition of TEA uptake (apical to cell) in OCT2-expressing MDCK cells
[4] = substrate: CC[N+](CC)(CC)CC; test: cells, lysate or membranes named

| Molecule | Ki [1] | Ki [2] | Ki [3] | Km [4] |
| --- | --- | --- | --- | --- |
| C=C[C@H]1C[N@@]2CC[C@H]1C[C@@H]2[C@@H](O)c1ccnc2ccc(OC)cc12 [QUINIDINE] | 19.1 µM |  |  |  |
| N=C(N)N [GUANIDINE] | 714 µM | 724 µM |  |  |
| C[n+]1ccc(-c2ccccc2)cc1 | 1.8 µM | 0.8 µM |  |  |
| CNC(=O)c1cccnc1 [NICOTINYL METHYLAMIDE] | 403 µM | 669 µM |  |  |
| CC[N+](CC)(CC)CC [TETRYLAMMONIUM] |  | 46.6 µM | 52.2 µM |  |
| CN/C(=N/CCSCc1nc[nH]c1C)NC#N [CIMETIDINE] | 9.4 µM | 5.7 µM |  |  |
| CN1CCC[C@H]1c1cccnc1 [NICOTINE] | 50.5 µM | 64.3 µM |  |  |
| B1 |  |  |  | 38 µM |
| B2 |  |  |  | 45 µM |
